Like-named read-outs stand apart in the source and are kept apart here.
What was measured:
[1] = tested on: human umbilical vein endothelial cells (HUVEC); assay: HUVEC proliferation assay (VEGF-stimulated, MTT); type: cell-based; settings: Homo sapiens, HUVEC; read-out: HUVEC IC50
[2] = Human liver microsome (HLM) assay; type: in vitro ADME; settings: human liver microsomes, 5 μM test compound
Protocol: Human Liver Microsome (HLM) Assay Compound metabolism in human liver microsomes was measured by LC-MS analytical assay procedures as follows. […] (3 tubes per test compound-triplicate). […] The samples were then transferred to separate polypropylene microcentrifuge tubes and centrifuged at 14000 g for 10 min. (Fisher Micro […] M0017580). For each replicate (#1-3) at each timepoint (0 and 2 h), an aliquot sample of each test compound was combined into a single HPLC vial insert (6 total samples) for LC-MS analysis, which is described below.

[3] = Determination of inhibitor concentration in mouse plasma after intraperitoneal and oral dosing; type: in vivo; settings: for concentration at 7 h: vehicle PEG400:H2O pH 2.3 30:70, read-out: Cmin (7 hr conc.)
How it was run: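 Mice dosed intraperitoneally or orally; blood taken by ocular bleed at 0.5, 1 and 4 h and by intracardiac puncture at 7 h. Plasma extracted with ethyl acetate after internal standard and NaOH addition, analysed by HPLC or LC-MS against a mouse-plasma standard curve.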

[4] = target: unphosphorylated VEGF-R2Δ50 (FLVK) (Homo sapiens, UniProt P35968, DEL940-989/E990V); assay: VEGF-R2 coupled spectrophotometric assay, unphosphorylated VEGF-R2Δ50 (FLVK); settings: FLVK Ki, Table 1
[5] = IP, 25 mg/kg, vehicle PEG400:H2O pH 2.3 30:70
[6] = PO, 50 mg/kg, vehicle PEG400:H2O pH 2.3 30:70
[7] = PO, 25 mg/kg, vehicle PEG400:H2O pH 2.3 30:70

Chain of unphosphorylated VEGF-R2Δ50 (FLVK) (P35968 with tags, fused parts or gaps DEL940-989/E990V limits assumed): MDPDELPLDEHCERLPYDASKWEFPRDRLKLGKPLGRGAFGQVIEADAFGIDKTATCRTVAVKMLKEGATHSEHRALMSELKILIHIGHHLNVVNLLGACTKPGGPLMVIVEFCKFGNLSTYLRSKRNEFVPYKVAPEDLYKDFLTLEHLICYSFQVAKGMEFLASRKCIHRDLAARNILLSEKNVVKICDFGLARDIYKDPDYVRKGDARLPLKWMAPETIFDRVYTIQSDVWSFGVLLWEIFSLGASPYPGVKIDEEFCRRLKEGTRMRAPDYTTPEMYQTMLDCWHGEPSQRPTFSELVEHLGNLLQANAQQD

| Compound | % remain (HLM, 2 h) [2] [%] | AUClast [3, 5] [ng·h/mL] | plasma half-life (T1/2) [3, 5] [h] | AUClast [3, 6] [ng·h/mL] | plasma half-life (T1/2) [3, 6] [h] | concentration at 7 h ([3]; female, IP, 25 mg/kg) [ng/mL] | concentration at 7 h ([3]; female, PO, 50 mg/kg) [ng/mL] | plasma half-life (T1/2) [3, 7] [h] | concentration at 7 h ([3]; female, PO, 25 mg/kg) [ng/mL] | other results |
| --- | --- | --- | --- | --- | --- | --- | --- | --- | --- | --- |
| C[C@@H]1C[C@H]1C(=O)Nc1cccc(C(=O)c2ccc3c(/C=C/c4ccccn4)n[nH]c3c2)c1 (racemic) [Example 41(h), 6-[3-((2-RS-trans-Methylcyclopropyl)carboxamido)benzoyl]-3-E-[2-(pyridin-2-yl)ethenyl]-1H-indazole] | 8 | 26911 | 1.2 | 4677 | 0.7 | 300 | 7 | – | – | IC50 [1]: 2 nM; Cmax [3, 5]: 16005 ng/mL; Cmax [3, 6]: 4080 ng/mL |
| O=C(Nc1cccc(Oc2ccc3c(/C=C/c4ccco4)n[nH]c3c2)c1)c1ccccc1 [Example 30(c), 6-[3-Benzamidophenoxy]-3-E-[2-(fur-2-yl)ethenyl]-1H-indazole] | 54 | – | – | – | – | – | – | – | – | Ki [4]: 0.83 nM |
| O=C(Nc1cccc(Oc2ccc3c(/C=C/c4cccs4)n[nH]c3c2)c1)c1ccccc1 [Example 30(a), 6-[3-Benzamidophenoxy]-3-E-[2-(thien-2-yl)ethenyl]-1H-indazole] | 64 | – | – | – | – | – | – | – | – | Ki [4]: 1.7 nM |
| Cc1cccc(C(=O)Nc2cccc(N(C)c3ccc4c(/C=C/c5ccc6c(c5)OCO6)n[nH]c4c3)c2)c1 [Example 16(b), N-(3-{[3-(2-Benzo[1,3]dioxol-5-yl-vinyl)-1H-indazol-6-yl]-methyl-amino}-phenyl)-3-methyl-benzamide] | 50 | – | – | – | – | – | – | – | – | Ki [4]: 0.34 nM |
| O=C(c1cccc(NC(=O)c2cccc3[nH]ccc23)c1)c1ccc2c(/C=C/c3ccccc3)n[nH]c2c1 [Example 19(f), 6-[3-(Indol-4-ylcarboxamido)benzoyl]-3-E-styryl-1H-indazole] | 98 | – | – | – | – | – | – | – | – | Ki [4]: 0.18 nM |
| Cn1ccnc1/C=N/NC(=O)c1ccccc1Sc1ccc2c(/C=C/c3ccccn3)n[nH]c2c1 [Example 36(a)] | 58 | – | – | – | – | – | – | 1.5 | 17 | AUClast [3, 7]: 605 ng·h/mL |
| O=C(Nc1nccs1)c1ccccc1Sc1ccc2c(/C=C/c3ccccn3)n[nH]c2c1 [Example 35(y), 6-[2-(Thiazol-2-ylcarbamoyl)phenylsulfanyl]-3-E-[2-(pyridin-2-yl)ethenyl]-1H-indazole] | 7 | 159 | 1.2 | 58 | 1.2 | 2 | 1 | – | – | – |
| CC(C)ONC(=O)c1cccc(F)c1Sc1ccc2c(/C=C/c3ccccn3)n[nH]c2c1 [Example 37(c), 6-[6-Fluoro-2-(isopropoxycarbamoyl)phenylsulfanyl]-3-E-[2-(pyridin-2-yl)ethenyl]-1H-indazole] | 21 | – | – | – | – | – | – | 1.2 | 9 | AUClast [3, 7]: 2419 ng·h/mL |
| CCCNC(=O)c1ccccc1Sc1ccc2c(/C=C/c3ccccn3)n[nH]c2c1 [Example 35(a), 6-[2-(n-Propylcarbamoyl)phenylsulfanyl]-3-E-[2-(pyridin-2-yl)ethenyl]-1H-indazole] | 33 | 2032 | 1.4 | 2445 | 0.9 | 24 | 10 | – | – | Cmax [3, 5]: 2138 ng/mL; Cmax [3, 6]: 1780 ng/mL |
| CCCONC(=O)c1ccccc1Sc1ccc2c(/C=C/c3ccccn3)n[nH]c2c1 [Example 35(t), 6-[2-(n-Propoxycarbamoyl)phenylsulfanyl]-3-E-[2-(pyridin-2-yl)ethenyl]-1H-indazole] | 7 | – | – | – | – | – | – | 1.1 | 41 | AUClast [3, 7]: 3199 ng·h/mL |
| O=C(NCC1CC1)c1ccccc1Sc1ccc2c(/C=C/c3ccccn3)n[nH]c2c1 [Example 35(v), 6-[2-(Cyclopropylmethyl-carbamoyl)phenylsulfanyl]-3-E-[2-(pyridin-2-yl)ethenyl]-1H-indazole] | 26 | 4865 | 0.9 | – | 1.0 | 16 | 26 | – | – | AUC(0-t) ([3]; female, PO, 50 mg/kg, vehicle PEG400:H2O pH 2.3 30:70): > 2950 ng·h/mL; Cmax ([3]; female, PO, 50 mg/kg, vehicle PEG400:H2O pH 2.3 30:70, read-out: Cmax): > 2000 ng/mL |
| CC(C)ONC(=O)c1ccccc1Sc1ccc2c(/C=C/c3ccccn3)n[nH]c2c1 [Example 35(k), 6-[2-(Isopropoxycarbamoyl)phenylsulfanyl]-3-E-[2-(pyridin-2-yl)ethenyl]-1H-indazole] | 14 | 2640 | 1.4 | 5529 | 1.4 | 35 | 33 | – | – | – |
| Cc1cc(C(=O)Nc2cc(C(=O)c3ccc4c(/C=C/c5ccccn5)n[nH]c4c3)ccc2C)n(C(C)C)n1 [Example 41(kk), 6-[3-((1-Isopropyl-3-methyl-1H-pyrazol-5-yl)carboxamido)-4-methylbenzoyl]-3-E-[2-(pyridin-2-yl)ethenyl]-1H-indazole] | 63 | – | – | – | – | – | – | 2.0 | 415 | AUClast [3, 7]: 11612 ng·h/mL |
| COc1ccc(CNC(=O)c2ccccc2Sc2ccc3c(/C=C/c4ccccn4)n[nH]c3c2)cc1 [Example 35(g)] | 53 | – | – | – | – | – | – | 16.1 | 28 | AUClast [3, 7]: 231 ng·h/mL |
| CCOCCNC(=O)c1ccccc1Sc1ccc2c(/C=C/c3ccccn3)n[nH]c2c1 [Example 35(z), 6-[2-(2-(Ethoxy)ethylcarbamoyl)phenylsulfanyl]-3-E-[2-(pyridin-2-yl)ethenyl]-1H-indazole] | 2 | 837 | 1.8 | 1001 | 1.6 | 22 | 14 | – | – | – |
| CNC(=O)c1ccccc1Sc1ccc2c(/C=C/c3ccccn3)n[nH]c2c1 [Example 33(a), 6-[2-(methylcarbamoyl)phenylsulfanyl]-3-E-[2-(pyridin-2-yl)ethenyl]indazole] | 29 | 13813 | – | 19067 | – | – | – | – | – | Cmax [3, 5]: 13794 ng/mL; Cmax [3, 6]: 23562 ng/mL; Cmax ([3]; female, PO, 25 mg/kg, vehicle 0.5% CMC, read-out: Cmax): 721 ng/mL; Cmax ([3]; female, PO, 100 mg/kg, vehicle 0.5% CMC, read-out: Cmax): 3560 ng/mL |
| O=C(NOCC1CC1)c1ccccc1Sc1ccc2c(/C=C/c3ccccn3)n[nH]c2c1 [Example 35(s), 6-[2-((Cyclopropyl)methoxycarbamoyl)phenylsulfanyl]-3-E-[2-(pyridin-2-yl)ethenyl]-1H-indazole] | 16 | – | – | – | – | – | – | 2.2 | 86 | AUC(0-t) ([3]; female, PO, 25 mg/kg, vehicle PEG400:H2O pH 2.3 30:70): 7420 ng·h/mL; Cmax ([3]; female, PO, 25 mg/kg, vehicle PEG400:H2O pH 2.3 30:70, read-out: Cmax): 3370 ng/mL |
| Cn1cccc1C(=O)NNC(=O)c1ccccc1Sc1ccc2c(/C=C/c3ccccn3)n[nH]c2c1 [Example 35(e), 6-[2-((1-Methylpyrrol-2-ylhydrazido)carbonyl)phenylsulfanyl]-3-E-[2-(pyridin-2-yl)ethenyl]-1H-indazole] | 34 | 2409 | 1.8 | 1503 | 0.9 | 65 | 6 | – | – | – |
